Laboratory results published in patent US7803557B2, “Methods for identification of eicosapentaenoic acid analogs using anti-inflammatory receptors” (The Brigham and Women's Hospital, Inc., priority 2003, dated 2010).
Where two headings read alike, the source gives them in different places.

Legend:
[1] = tested on: leukocyte infiltration in zymosan-induced peritonitis; experiment: Zymosan induced peritonitis (leukocyte infiltration); format: in vivo, mouse; details: for inhibition of leukocyte recruitment: 100 ng/mouse intravenously, 2 h
Procedure: For peritonitis, 100 ng/mouse of Resolvin E1 or related structures was injected into tail vein and followed by 1 ml zymosan A (1 mg/ml) into the peritoneum. Peritoneal lavages were collected at 2 h and cells were enumerated.
18R-HEPE (100 ng), Resolvin E1 (100 ng), or Indomethacin (100 ng) was injected intravenously into mouse tails followed by zymosan A into the peritoneum. Mice were sacrificed, and peritoneal lavages were collected (2 h) and cells enumerated (n=3).

Reso ER1 [2] = molecular target: T1, Reso ER1 (Homo sapiens, UniProt Q99788); experiment: NF-kB reporter gene assay, HEK293 cells transfected with Reso ER1; format: cell-based; parameters: expressed in transfected cells; host or cells: HEK293, transient transfection with pcDNA3-Reso ER1
T1 sequence (Q99788 1-373): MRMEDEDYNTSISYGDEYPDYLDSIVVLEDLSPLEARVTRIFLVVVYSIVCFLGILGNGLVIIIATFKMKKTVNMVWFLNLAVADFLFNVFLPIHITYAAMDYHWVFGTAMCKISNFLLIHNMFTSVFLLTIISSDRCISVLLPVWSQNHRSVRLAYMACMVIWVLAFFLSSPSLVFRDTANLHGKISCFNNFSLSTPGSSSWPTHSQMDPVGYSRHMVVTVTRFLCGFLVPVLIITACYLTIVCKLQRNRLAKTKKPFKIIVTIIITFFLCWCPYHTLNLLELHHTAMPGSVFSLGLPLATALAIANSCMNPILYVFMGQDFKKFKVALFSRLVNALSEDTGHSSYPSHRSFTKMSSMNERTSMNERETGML
Procedure: HEK293 cells (1.0′10^5 cells) were transiently transfected with 50 ng pNF-kB-luciferase (Stratagene), 500 ng of either pcDNA3 or pcDNA3-GPCRs and the internal standard pRL-TK (Promega) using Superfect transfection reagent (Qiagen). After 24 h, cells were exposed to the test compounds for 30 min, stimulated with recombinant human TNF-a (1.0 ng/ml, BD Pharmingen) for 5 h. Luciferase activity was measured by the Dual-Luciferase reporter assay system (Promega). Basal induction of luciferase activity by TNF-a was >150-fold in this system. Efficient expression of GPCRs to the cell surface was observed by immunostaining using HA-tagged GPCR constructs. For PTX treatment, HEK293 cells were treated with PTX (200 ng/ml) for 24 h before stimulation.
(§1) FIG. 4d illustrate effects of PTX on Resolvin E1 induced activation and NF-kB inhibition. In—(a) HEK-hReso ER1 cells were incubated with or without PTX (200 ng/ml) for 24 h at 37 C and ERK activation was monitored by addition of Resolvin E1 (100 nM) for 5 min. In (b) HEK293 cells were transiently transfected with pcDNA-hReso ER1, pNF-kB-luciferase and pRL-TK. After 24 h with or without PTX (200 ng/ml), cells were exposed to Resolvin E1 (50 nM) for 30 min, stimulated with TNF-a (1.0 ng/ml) for 5 h, and luciferase activity was measured.

HEK293-Reso ER1 cells = experiment: MAP kinase (ERK) activation in HEK293-Reso ER1 cells; format: cell-based, human
Procedure: (§2) MAP kinase activation in monocytes and HEK293 cells after treatment with 100 nM of each compound was determined. After incubations, cells were lysed in cold lysis buffer (50 mM Tris-HCl, pH 8.0, 150 mM NaCl, 0.5 mM EDTA, 1.0% NP-40, 0.5% sodium deoxycolate, 10 mM NaF, 10 mM sodium pyrophosphate) containing protease inhibitor cocktail (Sigma). […] of protein was separated on SDS-PAGE and immunoblot was performed using anti-phospho-p44/42 MAP kinase (Cell Signaling) and anti-ERK (Santa Cruz) antibodies. For PTX treatment, HEK-Reso ER1 cells were incubated with or without PTX (200 ng/ml) for 24 h at 37° C. and ERK activation was monitored by addition of Resolvin E1 (100 nM) for 5 min.
as §1

Reso ER1 [3] = molecular target: T1, Reso ER1; experiment: [35S]-GTPgS binding assay, membranes expressing Reso ER1; format: biochemical; parameters: expressed in transfected cells; details: isolated membranes from cells expressing Reso ER1; concentration-dependent
Procedure: HEK293 cells stably expressing human Reso ER1 were homogenized in ice-cold TED buffer (20 mM Tris-HCl pH7.5/1 mM EDTA/5 mM MgCl2/1 mM DTT). Membrane fraction ([…]) was incubated in […] of GTP-binding buffer (50 mM Hepes, pH7.5/100 mM NaCl/1 mM EDTA/5 mM MgCl2/1 mM DTT) containing 0.1 nM [^35S]-GTPgS (>1000 Ci/mmol, Amersham) and […] for 30 min at 30° C. The bound and unbound [35S]-GTPgS was separated by rapid filtration through GF/C filters, and counted by liquid scintillation. Nonspecific binding was determined in the presence of […] unlabeled GTPgS. Basal [^35S]-GTP-gS binding was 81.6+1.5 cpm/mg protein.

[4] = tested on: peripheral blood monocytes; experiment: MAP kinase (ERK) activation in peripheral blood monocytes; format: cell-based, human; details: 100 nM
Procedure: as §2

[5] = tested on: mock-transfected HEK293 cells; experiment: MAP kinase (ERK) activation in mock-transfected HEK293 cells; format: cell-based, human; details: 100 nM
Procedure: as §2

mouse splenic CD11c+ DCs = experiment: IL-12p40 production by isolated splenic CD11c+ DCs stimulated with STAg; format: cell-based
Procedure: (§3) Experiments were performed essentially as in (19). STAg was prepared from sonicated T. gondii (RH strain) tachzoytes. For isolated DC experiments, 70-85% CD11c positive DCs were isolated from spleen. CD11c+DC suspensions (1.0×10^6 cells/ml) were spread into 96-well plates and incubated for 24 h with Resolvin E1 before the addition of STAg ([…]). After overnight culture, supernatants were collected and IL-12p40 was measured with a sandwich ELISA. For in vivo treatments, C57BL/6 mice (n=3 per group) were injected intravenously with 100 ng Resolvin E1. After 18 h the animals were challenged intraperitoneally with PBS (0.2 ml/mouse), STAg (5 mg/ml) and sacrificed after an additional 6 h. CD11c+DCs were isolated from spleen and IL12-p40 secretion was measured at 24 h. For DC migration, Splenic frozen section from mice treated as above but given […] of Resolvin E1 or vehicle were stained for CD11c and counterstained with hematoxylin.
Chemically synthesized siRNA for mouse Reso ER1 (5′-[…]dTdT-3′) and Non-specific control IX siRNA (5′-[…]-3′) were from Dharmacon Research. Spleen cells (1.0×10^6 cells/ml) were transfected using Chariot (Active Motif) following manufacturers' instructions. Briefly, siRNA was mixed with Chariot transfection reagent and incubated at room temperature for 30 minutes. […]

[6] = molecular target: recombinant LTB4 receptor BLT 1 (Homo sapiens, UniProt Q15722); details: higher concentrations; reference (7); cited from earlier work
Sequence of recombinant LTB4 receptor BLT 1 (Q15722 whole entry): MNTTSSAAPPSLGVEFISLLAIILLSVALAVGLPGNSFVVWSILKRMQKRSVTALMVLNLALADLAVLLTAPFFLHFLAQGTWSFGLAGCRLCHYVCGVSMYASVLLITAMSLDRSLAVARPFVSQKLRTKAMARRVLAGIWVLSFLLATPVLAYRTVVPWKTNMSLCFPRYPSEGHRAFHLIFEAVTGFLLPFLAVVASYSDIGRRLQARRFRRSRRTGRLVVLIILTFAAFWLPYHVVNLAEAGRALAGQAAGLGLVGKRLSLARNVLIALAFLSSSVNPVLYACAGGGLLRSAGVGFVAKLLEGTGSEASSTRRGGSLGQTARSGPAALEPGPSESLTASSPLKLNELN

[7] = tested on: leukocyte infiltration in TNF-a induced dorsal air pouch; experiment: Murine dorsal air-pouch model (TNF-a induced leukocyte infiltration); format: in vivo, mouse; parameters: inhibition of leukocyte recruitment: dose or concentration left out as unconfirmed
Procedure: Dorsal air pouches were raised on male FvB mice (6-8 wk) by injecting 3 ml of sterile air subcutaneously on days 0 and 3. On day 6, 100 ng/mouse of compounds were injected into tail vein. Inflammation in the air-pouch was induced by intrapouch injection of mouse recombinant TNF-a (100 ng/pouch), and pouch lavages were collected at 4 h and cells were enumerated.

splenic CD11c+ DCs = experiment: In vivo activation of spleen dendritic cells with pathogen extract (STAg); parameters: species or system mouse; DC migration into T cell areas of the spleen: dose or concentration left out as unconfirmed; details: STAg challenge
Procedure: as §3

[8] = tested on: human peripheral blood monocytes; experiment: Calcium mobilization in human peripheral blood monocytes; format: cell-based
[9] = LC-MS/MS analysis of Resolvin E1 in human plasma; format: in vivo; details: oral, healthy human volunteers given EPA and aspirin, 6 donors
Procedure: Human plasma samples were collected at 4 hours after oral administration of fish oil supplement (Fish Oil Concentrate, Walgreens) containing EPA (1 g) and DHA (0.7 g) followed by aspirin (160 mg) at 3 h in six healthy volunteers. Plasma samples were extracted by C18 solid phase extraction with d4-LTB4 (Cascade) as internal standard for LC-MS/MS analysis (7) using a Finnigan LCQ liquid chlomatography ion trap tandem mass spectrometer equipped with a LUNA C18-2 (100×2 mm×[…]) column and UV diode array detector using mobile phase (methanol:water:acetate at 65:35:0.01) from 0 to 8 min, ramped to methanol 8 to 30 min, with a 0.2 ml/min flow rate.

[10] = tested on: HEK-Reso ER1 stable transformants; experiment: Calcium mobilization in HEK-Reso ER1 stable transformants; format: cell-based, human
[11] = tested on: leukocyte infiltration in TNF-a induced dorsal air pouch; details: 1.0 mg/mouse, reference (9); cited from earlier work

## CCC(O)C=CC=CCC(O)C=CC=CC=CC(O)CCCC(=O)O (single isomer, unassigned) [6-trans,14-trans isomer]
[1]; versus Resolvin E1
  reduced potency for reducing leukocyte infiltration: ~70%

## CC[C@H](O)/C=C/C=C\C[C@@H](O)/C=C/C=C/C=C\[C@@H](O)CCCC(=O)O (single isomer, unassigned) [18S isomer]
[1]
  activity compared with native Resolvin E1 containing 18R: essentially equivalent activity

## CC[C@@H](O)/C=C/C=C\C[C@@H](O)/C=C/C=C/C=C\[C@@H](O)CCCC(=O)O [Resolvin E1, 5S,12R,18R-trihydroxy-6Z,8E,10E,14Z,16E-eicosapentaenoic acid]
Reso ER1 [2]; read-out: EC50, inhibition of TNF-a induced NF-kB activation
  EC50: ~1 nM
HEK293-Reso ER1 cells; 100 nM, HEK293-Reso ER1 cells
  phosphorylation of ERK MAP kinase: increased phosphoryation
HEK293-Reso ER1 cells; PTX 200 ng/ml 24 h, Resolvin E1 100 nM, 5 min
  Resolvin E1 dependent ERK activation after pertussis toxin: abolished
[1]
  inhibition of leukocyte recruitment: 50-60%
Reso ER1 [3]
  specific [35S]-GTPgS binding: increased selectively
[4]
  phosphorylation of ERK MAP kinase: increased phosphoryation
[5]
  phosphorylation of ERK MAP kinase: not in mock-transfected HEK293 cells
Mouse splenic CD11c+ DCs; isolated mouse splenic CD11c+ DCs, within the nanomolar range
  IL-12p40 production by STAg: markedly inhibited
Mouse splenic CD11c+ DCs; spleen cells transfected with siRNA, STAg stimulation
  action in regulating IL-12 production from DCs after siRNA specific for mouse Reso ER1: eliminated
[6]
  concentration at which it interacts with recombinant BLT1: ~0.5 mM
[7]; 100 ng/mouse, tail vein, TNF-a induced dorsal air pouch
  inhibition of leukocyte infiltration: 50-70%
Splenic CD11c+ DCs; 100 ng intravenously, IL-12p40 from splenic CD11c+ DCs
  IL-12 production in vivo: blocked IL-12 production
Splenic CD11c+ DCs; Resolvin E1, CD11c staining
  DC migration into T cell areas of the spleen: blocked
[8]; 100 nM, data not shown, cell type not restated
  inhibition of calcium mobilization by 100 nM LTB4: did not inhibit calcium mobilization
[8]; human peripheral blood monocytes
  calcium mobilization: did not evoke a calcium mobilization
[9]
  concentration at 4 h: 0.1 to 0.4 ng/mL
[10]
  calcium mobilization: did not evoke a calcium mobilization

## CC(=O)Oc1ccccc1C(=O)O [aspirin, reference compound]
Reso ER1 [2]; HEK293, 1 mM, read-out: non-receptor dependent inhibition of NF-kB
  inhibition at 1000 µM: 26.2%
[11]
  inhibition of leukocyte recruitment: 70%

## C[C@@H]1C[C@H]2[C@@H]3CCC4=CC(=O)C=C[C@]4(C)[C@@]3(F)[C@@H](O)C[C@]2(C)[C@@]1(O)C(=O)CO [dexamethasone, reference compound]
[7]; local administration, dorsal air pouch
  inhibition of leukocyte recruitment: 60%

## COc1ccc2c(c1)c(CC(=O)O)c(C)n2C(=O)c1ccc(Cl)cc1 [indomethacin, reference compound]
[1]
  inhibition of leukocyte recruitment: 25%
